Source: patent US8404643B2, “Metastin derivatives and use thereof” (priority 2005, dated 2013)
Square brackets hold non-standard residues; d marks the D form. Peptide text beside a SMILES is read from it. * marks the point of attachment. Pro(trans-4-F) = O=C(O)[C@@H]1C[C@@H](F)CN1; Phe(2-F) = N[C@@H](Cc1ccccc1F)C(=O)O; Arg(Me) = CNC(=N)NCCC[C@H](N)C(=O)O; Dap(CONH2) = NC(=O)NC[C@H](N)C(=O)O; Hyp = O=C(O)[C@@H]1C[C@@H](O)CN1; Pip(4-aza) = O=C(O)[C@@H]1CNCCN1; dNMeF = CN[C@H](Cc1ccccc1)C(=O)O; αMeF = C[C@](N)(Cc1ccccc1)C(=O)O; Pip = O=C(O)[C@@H]1CCCCN1; NMeA = CN[C@@H](C)C(=O)O; dDap = NC[C@@H](N)C(=O)O; Bn = c1ccc(C*)cc1; azaGly = NNC(=O)O; Sar = CNCC(=O)O

Target: T1, hOT7T175 (Homo sapiens, UniProt Q969F8)
T1 construct: expressed in transfected cells
Test: Assay for intracellular Ca ion level-increasing activity using FLIPR
Format: cell-based
Settings: hOT7T175/CHO cells, relative to Metastin (1-54)
Procedure: In accordance with the method described in JPA 2000-312590, the intracellular Ca ion level-increasing activity was measured using FLIPR.
The stable expression cell line hOT7T175 was obtained by transfection of the expression plasmid pAK-rOT175 for animal cells into CHO/dhfr^− cells, using CellPhect Transfection Kit (Amersham Pharmacia Biotech, Inc.). First, 240 μL of Buffer A (attached to CellPhect Transfection Kit) was added to 9.6 μg of plasmid DNA dissolved in 240 μL of distilled water followed by stirring. After the mixture was settled for 10 minutes, 480 μL of Buffer B (attached to CellPhect Transfection Kit) was added to the mixture, which was vigorously stirred to form liposomes containing the DNA. Then, 4×10^5 CHO/dhfr^− cells (obtained from ATCC) were inoculated on a 60 mm Petri dish. After culturing the cells in Ham's F-12 medium (Nissui Seiyaku Co., Ltd.) supplemented with 10% fetal bovine serum (BIO WHITTAKER, Inc.) at 37° C. for 2 days in 5% carbon dioxide gas, […] of the liposomes were dropwise added to the cells on the Petri dish. After culturing the cells at 37° C. for 6 hours in 5% carbon dioxide gas, the cells were washed twice with serum-free Ham's F-12 medium and 3 mL of 15% glycerol was added to the cells on the Petri dish followed by treatment for 2 minutes. The cells were again washed twice with serum-free Ham's F-12 medium followed by incubation in Ham's F-12 medium supplemented with 10% fetal bovine serum at 37° C. for 15 hours in 5% carbon dioxide gas. The cells were dispersed by trypsin treatment to recover from the Petri dish. The recovered cells were inoculated on a 6-well plate in 1.25×10^4 cells/well and incubation was initiated at 37° C. in Dulbecco's modified Eagle medium (DMEM) medium (Nissui Seiyaku Co., Ltd.) containing 10% dialyzed fetal bovine serum (JRH BIOSCIENCES, Inc.) in 5% carbon dioxide gas. The plasmid-transfected CHO transformants grew in the medium but the non-transfected cells gradually died, accordingly the medium was exchanged on Days 1 and 2 after the initiation of incubation to remove the cells died. Approximately 20 colonies of the CHO transformants that kept growing on Days 8 to 10 after the incubation were isolated. From the cells in these colonies, cells showing high reactivity with the ligand peptide metastin (hereinafter merely referred to as hOT7T175/CHO) were selected to provide for the following experiment.
The intracellular Ca ion level-increasing activity of the synthetic peptide in hOT7T175/CHO was determined using FLIPR (Molecular Devices, Inc.).
hOT7T175/CHO was subcultured in DMEM supplemented with 10% dialyzed fetal bovine serum (hereinafter abbreviated as dFBS) (hereinafter referred to as 10% dFBS/DMEM) and provided for the experiment. The hOT7T175/CHO was suspended in 10% dFBS-DMEM in 15×10^4 cells/ml. The suspension was inoculated on a 96-well plate for FLIPR (Black Plate Clear Bottom, Coster, Inc.) at 200 μl/well (3.0×10^4 cells/200 μL/well), followed by incubation at 37° C. overnight in a 5% CO2 incubator (hereinafter referred to as the cell plate). Then, 21 ml of HANKS/HBSS (9.8 g of HANKS, 0.35 g of sodium hydrogencarbonate, 20 ml of 1M HEPES; after adjusting the pH to 7.4 with 1N sodium hydroxide, the mixture was sterilized by filtration), 210 μl of 250 mM Probenecid and 210 μl of fetal bovine serum (FBS) (HANKS/HBSS-Probenecid-FBS) were mixed.
Furthermore, 2 vials of Fluo3-AM (50 μg/vial) were dissolved in 21 μL of dimethylsulfoxide and 21 μL of 20% Pluronic acid. The resulting solution was added to and mixed with 10 ml of the HANKS/HBSS-Probenecid-FBS described above. After the culture medium was removed, the mixture was dispensed onto the cell plate in 100 μl each/well, followed by incubation at 37° C. for an hour in a 5% CO2 incubator (pigment loading). The peptide was dissolved in dimethylsulfoxide in 1×10^−3 M. The peptide solution was diluted with HANKS/HBSS containing 2.5 mM Probenecid, 0.2% BSA and 0.1% CHAPS. […]

T1 sequence (Q969F8 whole entry L364H): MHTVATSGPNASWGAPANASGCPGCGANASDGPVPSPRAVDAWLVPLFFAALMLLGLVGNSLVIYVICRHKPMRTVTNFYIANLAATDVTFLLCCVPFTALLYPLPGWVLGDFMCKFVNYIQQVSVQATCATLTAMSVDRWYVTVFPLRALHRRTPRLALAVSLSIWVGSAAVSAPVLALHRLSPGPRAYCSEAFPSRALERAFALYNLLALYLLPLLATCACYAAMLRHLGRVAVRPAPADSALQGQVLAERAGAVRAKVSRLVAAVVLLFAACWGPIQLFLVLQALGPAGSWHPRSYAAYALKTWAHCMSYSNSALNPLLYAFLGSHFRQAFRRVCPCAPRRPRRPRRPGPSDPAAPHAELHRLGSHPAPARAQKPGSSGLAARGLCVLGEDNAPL

Specific Activity: intracellular Ca ion level-increasing activity [specific activity to Metastin (1-54)] | Compound
0.8 | CNC(=N)NCCC[C@H](NC(=O)[C@H](CC(C)C)NC(=O)NNC(=O)[C@H](Cc1ccccc1)NC(=O)[C@@H](NC(=O)[C@H](CNC(N)=O)NC(=O)[C@@H]1C[C@@H](O)CN1C(=O)[C@@H](Cc1ccc(O)cc1)NC(C)=O)[C@@H](C)O)C(=O)N[C@@H](Cc1c[nH]c2ccccc12)C(N)=O [Compound No. 800, Ac-D-Tyr-Hyp-Alb-Thr-Phe-AzaGly-Leu-Arg(Me)-Trp-NH2] (Ac-[dY][Hyp][Dap(CONH2)]TF[azaGly]L[Arg(Me)]W-NH2)
2.0 | CNC(=N)NCCC[C@H](NC(=O)[C@H](CC(C)C)NC(=O)NNC(=O)[C@H](Cc1ccccc1)NC(=O)[C@@H](NC(=O)[C@H](CC(N)=O)NC(=O)[C@@H]1C[C@@H](O)CN1C(=O)[C@@H](Cc1ccc(O)cc1)NC(C)=O)[C@@H](C)O)C(=O)N[C@@H](Cc1c[nH]c2ccccc12)C(N)=O [Compound No. 723, Ac-D-Tyr-Hyp-Asn-Thr-Phe-AzaGly-Leu-Arg(Me)-Trp-NH2] (Ac-[dY][Hyp]NTF[azaGly]L[Arg(Me)]W-NH2)
2.4 | CNC(=N)NCCC[C@H](NC(=O)[C@H](CC(C)C)NC(=O)NNC(=O)[C@H](Cc1ccccc1)NC(=O)[C@@H](NC(=O)[C@H](CC(N)=O)NC(=O)[C@@H](CN)NC(=O)[C@@H](Cc1ccc(O)cc1)NC(C)=O)[C@@H](C)O)C(=O)N[C@@H](Cc1c[nH]c2ccccc12)C(N)=O [Compound No. 736, Ac-D-Tyr-D-Dap-Asn-Thr-Phe-AzaGly-Leu-Arg(Me)-Trp-NH2] (Ac-[dY][dDap]NTF[azaGly]L[Arg(Me)]W-NH2)
2.7 | CNC(=N)NCCC[C@H](NC(=O)[C@H](CC(C)C)NC(=O)NNC(=O)[C@H](Cc1ccccc1)NC(=O)[C@@H](NC(=O)[C@H](CC(N)=O)NC(=O)[C@H](C)N(C)C(=O)[C@@H](Cc1ccc(O)cc1)NC(C)=O)[C@@H](C)O)C(=O)N[C@@H](Cc1c[nH]c2ccccc12)C(N)=O [Compound No. 725, Ac-D-Tyr-NMeAla-Asn-Thr-Phe-AzaGly-Leu-Arg(Me)-Trp-NH2] (Ac-[dY][NMeA]NTF[azaGly]L[Arg(Me)]W-NH2)
3.5 | CNC(=N)NCCC[C@H](NC(=O)[C@H](CC(C)C)NC(=O)NNC(=O)[C@H](Cc1ccccc1F)NC(=O)[C@@H](NC(=O)[C@H](CC(N)=O)NC(=O)[C@H](CCC(=O)O)NC(=O)[C@@H](Cc1ccc(O)cc1)NC(C)=O)[C@@H](C)O)C(=O)N[C@@H](Cc1c[nH]c2ccccc12)C(N)=O [Compound No. 755, Ac-D-Tyr-Glu-Asn-Thr-Phe(2F)-AzaGly-Leu-Arg(Me)-Trp-NH2] (Ac-[dY]ENT[Phe(2-F)][azaGly]L[Arg(Me)]W-NH2)
3.0 | CNC(=N)NCCC[C@H](NC(=O)[C@H](CC(C)C)NC(=O)NNC(=O)[C@H](Cc1ccccc1)NC(=O)[C@@H](NC(=O)[C@H](CC(N)=O)NC(=O)[C@H](CCCCN)NC(=O)[C@@H](Cc1ccc(O)cc1)NC(C)=O)[C@@H](C)O)C(=O)N[C@@H](Cc1c[nH]c2ccccc12)C(N)=O [Compound No. 745, Ac-D-Tyr-Lys-Asn-Thr-Phe-AzaGly-Leu-Arg(Me)-Trp-NH2] (Ac-[dY]KNTF[azaGly]L[Arg(Me)]W-NH2)
0.7 | CNC(=N)NCCC[C@H](NC(=O)[C@H](CC(C)C)NC(=O)NNC(=O)[C@H](Cc1ccccc1)NC(=O)[C@@H](NC(=O)[C@H](CC(N)=O)NC(=O)[C@@H]1C[C@@H](F)CN1C(=O)[C@@H](Cc1ccc(O)cc1)NC(C)=O)[C@@H](C)O)C(=O)N[C@@H](Cc1c[nH]c2ccccc12)C(N)=O [Compound No. 897, Ac-D-Tyr-Pro(4F)-Asn-Thr-Phe-AzaGly-Leu-Arg(Me)-Trp-NH2] (Ac-[dY][Pro(trans-4-F)]NTF[azaGly]L[Arg(Me)]W-NH2)
1.1 | CNC(=N)NCCC[C@H](NC(=O)[C@H](CC(C)C)NC(=O)NNC(=O)[C@H](Cc1ccccc1)NC(=O)[C@@H](NC(=O)[C@H](CC(N)=O)NC(=O)[C@@H]1CCCCN1C(=O)[C@@H](Cc1ccc(O)cc1)NC(C)=O)[C@@H](C)O)C(=O)N[C@@H](Cc1c[nH]c2ccccc12)C(N)=O [Compound No. 721, Ac-D-Tyr-Pic(2)-Asn-Thr-Phe-AzaGly-Leu-Arg(Me)-Trp-NH2] (Ac-[dY][Pip]NTF[azaGly]L[Arg(Me)]W-NH2)
1.8 | CNC(=N)NCCC[C@H](NC(=O)[C@H](CC(C)C)NC(=O)NNC(=O)[C@H](Cc1ccccc1)NC(=O)[C@@H](NC(=O)[C@H](CC(N)=O)NC(=O)[C@@H](Cc1ccccc1)N(C)C(=O)[C@@H](Cc1ccc(O)cc1)NC(C)=O)[C@@H](C)O)C(=O)N[C@@H](Cc1c[nH]c2ccccc12)C(N)=O [Compound No. 782, Ac-D-Tyr-D-NMePhe-Asn-Thr-Phe-AzaGly-Leu-Arg(Me)-Trp-NH2] (Ac-[dY][dNMeF]NTF[azaGly]L[Arg(Me)]W-NH2)
1.4 | CNC(=N)NCCC[C@H](NC(=O)[C@H](CC(C)C)NC(=O)NNC(=O)[C@](C)(Cc1ccccc1)NC(=O)[C@@H](NC(=O)[C@H](CC(N)=O)NC(=O)[C@@H]1C[C@@H](O)CN1C(=O)[C@@H](Cc1ccc(O)cc1)NC(C)=O)[C@@H](C)O)C(=O)N[C@@H](Cc1c[nH]c2ccccc12)C(N)=O [Compound No. 868, Ac-D-Tyr-Hyp-Asn-Thr-αMePhe-AzaGly-Leu-Arg(Me)-Trp-NH2] (Ac-[dY][Hyp]NT[αMeF][azaGly]L[Arg(Me)]W-NH2)
1.7 | CNC(=N)NCCC[C@H](NC(=O)[C@H](CC(C)C)NC(=O)NNC(=O)[C@H](Cc1ccccc1)NC(=O)[C@@H](NC(=O)[C@H](CC(N)=O)NC(=O)[C@@H]1CNCCN1C(=O)[C@@H](Cc1ccc(O)cc1)NC(C)=O)[C@@H](C)O)C(=O)N[C@@H](Cc1c[nH]c2ccccc12)C(N)=O [Compound No. 760, Ac-D-Tyr-Pzc(2)-Asn-Thr-Phe-AzaGly-Leu-Arg(Me)-Trp-NH2] (Ac-[dY][Pip(4-aza)]NTF[azaGly]L[Arg(Me)]W-NH2)
1.0 | CNC(=N)NCCC[C@H](NC(=O)[C@H](CC(C)C)NC(=O)NNC(=O)[C@H](Cc1ccccc1)NC(=O)[C@@H](NC(=O)[C@H](CC(N)=O)NC(=O)[C@@H]1C[C@@H](OCc2ccccc2)CN1C(=O)[C@@H](Cc1ccc(O)cc1)NC(C)=O)[C@@H](C)O)C(=O)N[C@@H](Cc1c[nH]c2ccccc12)C(N)=O [Compound No. 781, Ac-D-Tyr-Hyp(Bzl)-Asn-Thr-Phe-AzaGly-Leu-Arg(Me)-Trp-NH2] (Ac-[dY][Hyp](Bn)NTF[azaGly]L[Arg(Me)]W-NH2)
8.8 | CNC(=N)NCCC[C@H](NC(=O)[C@H](CC(C)C)NC(=O)NNC(=O)[C@H](Cc1ccccc1)NC(=O)[C@@H](NC(=O)[C@H](CC(N)=O)NC(=O)CN(C)C(=O)[C@@H](Cc1ccc(O)cc1)NC(C)=O)[C@@H](C)O)C(=O)N[C@@H](Cc1c[nH]c2ccccc12)C(N)=O [Compound No. 731, Ac-D-Tyr-Sar-Asn-Thr-Phe-AzaGly-Leu-Arg(Me)-Trp-NH2] (Ac-[dY][Sar]NTF[azaGly]L[Arg(Me)]W-NH2)
